{"source": "patent US9199977B2", "about": "“Crystal having crystal habits and pharmaceutical composition obtained by processing the crystal” (POLA PHARMA INC., priority 2012, dated 2015)", "key": {"[1]": {"test": "Elution or dissolution test of luliconazole crystals in anhydrous ethanol", "format": "physicochemical", "details": "1 g luliconazole in 500 mL anhydrous ethanol, constant stirring, room temperature", "procedure": "(§1) Ethanol containing 10% water was added to luliconazole, followed by being heated, stirred, and filtrated while applying the heat. A filtrate was quickly cooled with an ice bath and the wall surface was scraped with a spatula to perform the recrystallization. Crystals were collected by filtration, followed by being dried by using phosphorus pentaoxide to obtain Crystal 1 of the present invention. In distinct Comparative Example, the same process or treatment was performed while replacing the solvent with a mixture of ethyl acetate/n-hexane (5:1) to obtain Crystal of Comparative Example. The elution or dissolution test was performed for the two types of the crystals to investigate the elution or dissolution profile. After confirming the dissolution of all crystals, the Z isomer and the SE isomer, which were the isomers generated or formed in the solution, were analyzed and quantitatively measured by HPLC assay.\n(§2) In the elution or dissolution test, 500 mL of anhydrous ethanol was used as the solvent, and 1 g of luliconazole was dissolved under constant stirring at room temperature. The time, which was required for the dissolution, was simultaneously measured. According to Table 1, it is appreciated that the time required for the dissolution is short for Crystal 1, and thus the generation of the Z isomer and the SE isomer as the isomers is suppressed in the dissolving step."}, "[2]": {"test": "HPLC quantification of Z and SE isomers generated in the solution after dissolution", "format": "physicochemical", "details": "in ethanol solution after dissolution of all crystals", "procedure": "as §1, §2\nThe condition for HPLC was as follows. Column: CHIRALCEL OD-RH 4.6×150 mm, column temperature: 35° C., mobile phase: mixture of methanol/2% aqueous solution of potassium hexafluorophosphate (85:15, v/v), flow rate: 0.6 mL/min., detection: 295 nm)."}}}
{"smiles": "N#C/C(=C1/SC[C@@H](c2ccc(Cl)cc2Cl)S1)n1ccnc1", "note": "[Crystal 1, luliconazole]", "values": [{"measurement": "Time required until dissolution", "setting": "[1]", "result": 200, "unit": "min"}, {"measurement": "Amount of generation of SE isomer", "setting": "[2]", "result": 0.06, "unit": "%"}, {"measurement": "Amount of generation of Z isomer", "setting": "[2]", "result": 0.06, "unit": "%"}]}
{"smiles": "N#C/C(=C1/SC[C@@H](c2ccc(Cl)cc2Cl)S1)n1ccnc1", "note": "[Crystal of Comp. Ex., luliconazole]", "values": [{"measurement": "Time required until dissolution", "setting": "[1]", "result": 300, "unit": "min"}, {"measurement": "Amount of generation of SE isomer", "setting": "[2]", "result": 0.09, "unit": "%"}, {"measurement": "Amount of generation of Z isomer", "setting": "[2]", "result": 0.13, "unit": "%"}]}
